# Laboratory results reported in patent US20230081390A1, “INHIBITORS OF RAF KINASES” (Kinnate Biopharma Inc., priority 2019, published 2023).
# Molecular target: human RAF1 (Homo sapiens, UniProt P04049)
# Test: Protein kinase assay (33P-ATP filter binding), human RAF1, 10-dose IC50
# Assay type: biochemical
# Conditions: MEK1 (K97R) substrate 3 micromolar, ATP 10 micromolar, read-out: RAF-1 IC50
# Procedure, shortened: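 Radiometric filter-binding format: 10 µM ATP, 3 µM MEK1 (K97R) as substrate for human RAF1, 2 hr at room temperature in 20 mM HEPES pH 7.5 with 10 mM MgCl2. Compounds were dispensed acoustically from DMSO. IC50 came from percent kinase activity relative to vehicle over a 10-dose series.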
# human RAF1, sequence (P04049 whole entry): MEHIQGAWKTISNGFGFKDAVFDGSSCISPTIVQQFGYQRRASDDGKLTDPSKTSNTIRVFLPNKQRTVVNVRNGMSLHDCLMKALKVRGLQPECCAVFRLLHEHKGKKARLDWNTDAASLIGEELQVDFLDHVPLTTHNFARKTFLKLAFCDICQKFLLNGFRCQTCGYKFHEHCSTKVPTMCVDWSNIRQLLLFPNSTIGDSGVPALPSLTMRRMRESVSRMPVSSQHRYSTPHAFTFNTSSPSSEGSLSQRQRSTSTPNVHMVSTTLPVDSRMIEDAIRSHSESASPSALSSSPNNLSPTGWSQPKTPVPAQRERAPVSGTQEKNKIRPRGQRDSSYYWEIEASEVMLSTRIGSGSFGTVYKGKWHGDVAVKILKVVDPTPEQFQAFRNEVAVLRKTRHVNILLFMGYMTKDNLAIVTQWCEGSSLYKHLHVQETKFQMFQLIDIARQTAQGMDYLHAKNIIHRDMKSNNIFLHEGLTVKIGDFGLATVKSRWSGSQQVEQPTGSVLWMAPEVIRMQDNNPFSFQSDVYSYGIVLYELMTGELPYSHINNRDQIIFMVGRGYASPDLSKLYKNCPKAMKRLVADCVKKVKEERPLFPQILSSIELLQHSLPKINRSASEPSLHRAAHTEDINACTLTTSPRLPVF
row,IC50 [µM],SMILES
1,< 0.01,"Cc1ccc(NC(=O)N2CCC(CC(F)(F)F)C2)cc1-c1cc(O[C@H]2CCOC2)nc(N2CCOCC2)c1 (stereo partly drawn) [Example 188, N-(4-methyl-3-(2-morpholino-6-(((S)-tetrahydrofuran-3-yl)oxy)pyridin-4-yl)phenyl)-3-(2,2,2-trifluoroethyl)pyrrolidine-1-carboxamide]"
2,< 0.01,"Cc1ccc(NC(=O)N2CCC(CC(F)(F)F)C2)cc1-c1cc(OCCCO)nc(N2CCOCC2)c1 (stereo not drawn) [Example 189, N-(3-(2-(3-hydroxypropoxy)-6-morpholinopyridin-4-yl)-4-methylphenyl)-3-(2,2,2-trifluoroethyl)pyrrolidine-1-carboxamide]"
3,< 0.01,"Cc1ccc(NC(=O)N2CCC(CC(F)(F)F)C2)cc1-c1cc(OC2CCN(C)CC2)nc(N2CCOCC2)c1 (stereo not drawn) [Example 190, N-(4-methyl-3-(2-((1-methylpiperidin-4-yl)oxy)-6-morpholinopyridin-4-yl)phenyl)-3-(2,2,2-trifluoroethyl)pyrrolidine-1-carboxamide]"
4,< 0.01,"Cc1ccc(NC(=O)N2CCC(CC(F)(F)F)C2)cc1-c1cc(O[C@H]2CCN(C)C2)nc(N2CCOCC2)c1 (stereo partly drawn) [Example 195, N-(4-methyl-3-(2-(((S)-1-methylpyrrolidin-3-yl)oxy)-6-morpholinopyridin-4-yl)phenyl)-3-(2,2,2-trifluoroethyl)pyrrolidine-1-carboxamide]"
5,< 0.01,"Cc1ccc(NC(=O)N2CCC(CC(F)(F)F)C2)cc1-c1cc(OCC(C)(C)CO)nc(N2CCOCC2)c1 (stereo not drawn) [Example 196, N-(3-(2-(3-hydroxy-2,2-dimethylpropoxy)-6-morpholinopyridin-4-yl)-4-methylphenyl)-3-(2,2,2-trifluoroethyl)pyrrolidine-1-carboxamide]"
6,< 0.01,"Cc1ccc(NC(=O)N2CCC(CC(F)(F)F)C2)cc1-c1cc(OCC(C)CO)nc(N2CCOCC2)c1 (stereo not drawn) [Example 199, N-(3-(2-(3-hydroxy-2-methylpropoxy)-6-morpholinopyridin-4-yl)-4-methylphenyl)-3-(2,2,2-trifluoroethyl)pyrrolidine-1-carboxamide]"
7,< 0.01,"Cc1ccc(NC(=O)N2CCC(CC(F)(F)F)C2)cc1-c1cc(O[C@@H]2CCOC2)nc(N2CCOCC2)c1 (stereo partly drawn) [Example 200, N-(4-methyl-3-(2-morpholino-6-(((R)-tetrahydrofuran-3-yl)oxy)pyridin-4-yl)phenyl)-3-(2,2,2-trifluoroethyl)pyrrolidine-1-carboxamide]"
8,< 0.01,"Cc1ccc(NC(=O)N2CCC(CC(F)(F)F)C2)cc1-c1cc(O[C@H]2CCNC2)nc(N2CCOCC2)c1 (stereo partly drawn) [Example 201, N-(4-methyl-3-(2-morpholino-6-((S)-pyrrolidin-3-yloxy)pyridin-4-yl)phenyl)-3-(2,2,2,- trifluoroethyl)pyrrolidine-1-carboxamide]"
9,< 0.01,"Cc1ccc(NC(=O)N2CCC(CC(F)(F)F)C2)cc1-c1cc(O[C@@H]2CCN(C)C2)nc(N2CCOCC2)c1 (stereo partly drawn) [Example 202, N-(4-methyl-3-(2-(((R)-1-methylpyrrolidin-3-yl)oxy)-6-morpholinopyridin-4-yl)phenyl)-3-(2,2,2-trifluoroethyl)pyrrolidine-1-carboxamide]"
10,< 0.01,"Cc1ccc(NC(=O)N2CCC(CC(F)(F)F)C2)cc1-c1cc(O[C@@H]2CCNC2)nc(N2CCOCC2)c1 (stereo partly drawn) [Example 203, N-(4-methyl-3-(2-morpholino-6-((R)-pyrrolidin-3-yloxy)pyridin-4-yl)phenyl)-3-(2,2,2-trifluoroethyl)pyrrolidine-1-carboxamide]"
11,< 0.01,"Cc1ccc(NC(=O)N2CC[C@@H](CC(F)(F)F)C2)cc1-c1cc(OC2CNC2)nc(N2CCOCC2)c1 [Example 204, (S)-N-(3-(2-(azetidin-3-yloxy)-6-morpholinopyridin-4-yl)-4-methylphenyl)-3-(2,2,2-trifluoroethyl)pyrrolidine-1-carboxamide]"
12,< 0.01,"Cc1ccc(NC(=O)N2CC[C@@H](OC(F)(F)F)C2)cc1-c1cc(OC2CNC2)nc(N2CCOCC2)c1 [Example 205, (R)-N-(3-(2-(azetidin-3-yloxy)-6-morpholinopyridin-4-yl)-4-methylphenyl)-3-(trifluoromethoxy)pyrrolidine-1-carboxamide]"
